A word on the IC50: it is the midpoint of a concentration-inhibition curve.

These results are taken from article PMC5578075 (International Journal of Molecular Sciences, 2017).

T1 sequence (O42275 24-633): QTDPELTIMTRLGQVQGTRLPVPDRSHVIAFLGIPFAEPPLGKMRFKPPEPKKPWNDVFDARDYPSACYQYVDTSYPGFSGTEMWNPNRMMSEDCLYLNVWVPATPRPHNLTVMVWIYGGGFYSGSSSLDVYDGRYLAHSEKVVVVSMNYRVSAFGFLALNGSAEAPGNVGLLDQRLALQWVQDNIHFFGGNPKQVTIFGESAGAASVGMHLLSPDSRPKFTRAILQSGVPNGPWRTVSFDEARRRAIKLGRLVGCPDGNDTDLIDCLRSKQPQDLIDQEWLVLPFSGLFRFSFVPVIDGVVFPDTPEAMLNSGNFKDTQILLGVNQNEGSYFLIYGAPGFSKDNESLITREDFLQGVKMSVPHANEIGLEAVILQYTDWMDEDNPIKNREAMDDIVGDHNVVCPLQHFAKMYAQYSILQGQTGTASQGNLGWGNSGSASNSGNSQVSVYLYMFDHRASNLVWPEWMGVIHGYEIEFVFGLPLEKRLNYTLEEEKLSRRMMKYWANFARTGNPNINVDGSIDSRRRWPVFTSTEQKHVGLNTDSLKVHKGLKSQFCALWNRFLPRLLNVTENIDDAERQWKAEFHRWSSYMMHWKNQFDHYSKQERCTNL

One test concerns the target T1, acetylcholinesterase from Electrophorus electricus (electric eel) (Electrophorus electricus, UniProt O42275).
T1 construct: purchased Sigma-Aldrich C2888
Description: biochemical. To be noted: AChA, IC50 (anti-acetylcholinesterase activity), total extracts of C. officinalis flowers; mean ± SD of five experiments. As for the experimental part: For the further detailed studies, samples of the individual flavonoids previously isolated from C. officinalis flowers were used. The acetylcholinesterase inhibition assay was performed using a spectrophotometric method. […] Additionally minor flavonoids of C. officinalis flowers were included for analysis such as 3-O-(2′′-acetyl)-glucosides, 3-O-(2′′,6′′-di-acetyl)-glucosides, 3-O-(3′′-rhamnosyl)-glucosides, 3-O-(4′′-rhamnosyl)-glucosides and 3-O-rhamnosides (Figure 3).
The acetylcholinesterase inhibition assay was performed using a spectrophotometric microplate assay. The reaction mixture consisted of 235.7 µL of 0.1 M phosphate buffer pH 7.4, 20 µL of a solution of acetylcholinesterase (final concentration 0.1 U/mL in 0.1 M phosphate buffer pH 7.4), 2.7 µL of test compound or plant extract solutions in dimethyl sulfoxide (DMSO). The controls contained the corresponding volume of DMSO of test compound solutions. The enzymatic reaction was initiated by the addition of 1.6 µL of α-naphthyl acetate solution in DMSO. After mixing for 90 s and incubation at 25 °C for 90 s, the reaction was stopped with 20 µL of a 5% solution of sodium dodecyl sulfate (SDS) in water. The color was developed with 20 µL of Fast Blue B salt solution (final concentration 0.17 mM in water). The method was realized in 96-well plates. The microplate was read by a Bio-Rad microplate reader Model 3550 UV. Enzyme activity and inhibition were quantified by determination of the absorbance at 600 nm after the formation of the purple-colored diazonium dye as a percentage. […] The percentage of inhibition was calculated relative to a control sample, for which the anti-acetylcholinesterase activity was assessed under identical conditions, but in the absence of the test compound, using the expression:% Inhibition = {[(ACE − AC) − (ATE − AT)]/(ACE − AC)} × 100% where ACE is the absorbance at 600 nm of the control sample with enzyme; AC is the absorbance at 600 nm of the control sample without enzyme; ATE is the absorbance at 600 nm of the test compound (or plant extract) with enzyme; AT is the absorbance at 600 nm of the test compound (or plant extract) without enzyme.
`CN(C)C(=O)Oc1cccc([N+](C)(C)C)c1` [neostigmine, neostigmine bromide, reference compound] had an IC50 of 3.36 µM.

Still in this test, the particulars now being: Anti-acetylcholinesterase activity, IC50, individual flavonoids; mean ± SD of three experiments.
Regarding `O=c1c(O[C@@H]2O[C@H](CO)[C@@H](O)[C@H](O)[C@H]2O)c(-c2ccc(O)c(O)c2)oc2cc(O)cc(O)c12` [Quercetin 3-O-Glcp, quercetin-3-O-glucoside], inhibition was half-maximal at 70.1 ± 1.82 µM (IC50).
Same read-out and setting: the figure for `CN(C)C(=O)Oc1cccc([N+](C)(C)C)c1` [neostigmine, neostigmine bromide, reference compound] is 3.37 µM; for `CC1OC(Oc2c(-c3ccc(O)c(O)c3)oc3cc(O)cc(O)c3c2=O)C(O)C(O)C1O` (stereo not shown) [Quercetin 3-O-Rhap, quercetin-3-O-rhamnoside] it is 48.8 ± 1.26 µM.
Compound `COc1cc(-c2oc3cc(O)cc(O)c3c(=O)c2O)ccc1O` [Isorhamnetin, 3,5,7,4′-tetrahydroxy-3′-methoxyflavone] had an IC50 of 24.2 ± 0.74 µM.
Same read-out and setting: the same measure for `C[C@@H]1O[C@@H](OC[C@H]2O[C@@H](Oc3c(-c4ccc(O)c(O)c4)oc4cc(O)cc(O)c4c3=O)[C@H](O)[C@@H](O)[C@@H]2O)[C@H](O)[C@H](O)[C@H]1O` [Quercetin 3-O-(6″-Rhap)-Glcp, quercetin-3-O-rutinoside]: 72.1 ± 2.04 µM.

Staying with this test, now noted: individual flavonoids; mean ± SD of three experiments; read-out: Anti-acetylcholinesterase activity, IC50.
On to `CC1OC(OC2C(Oc3c(-c4ccc(O)c(O)c4)oc4cc(O)cc(O)c4c3=O)OC(C)C(O)C(O)C2O)C(O)C(O)C1O` (stereo not shown) [Quercetin 3-O-(2″-Rhap)-Rhap, quercetin-3-O-(2′′-rhamnosyl)-rhamnoside], for which the IC50 amounted to 67.9 ± 1.76 µM.
Still for that read-out and setting: the figure for `CC1OC(OC2C(Oc3c(-c4ccc(O)c(O)c4)oc4cc(O)cc(O)c4c3=O)OC(CO)C(O)C2O)C(O)C(O)C1O` (stereo not shown) [Quercetin 3-O-(2″-Rhap)-Glcp, quercetin-3-O-(2′′-rhamnosyl)-glucoside] is 71.9 ± 1.94 µM; for `COc1cc(-c2oc3cc(O)cc(O)c3c(=O)c2OC2OC(CO)C(O)C(O)C2OC2OC(C)C(O)C(O)C2O)ccc1O` (stereo not shown) [Isorhamnetin 3-O-(2″-Rhap)-Glcp, isorhamnetin-3-O-(2′′-rhamnosyl)-glucoside] it is 94.3 ± 2.82 µM.
`CC(=O)OCC1OC(Oc2c(-c3ccc(O)c(O)c3)oc3cc(O)cc(O)c3c2=O)C(OC(C)=O)C(O)C1O` (stereo not shown) [Quercetin 3-O-(2″,6″-di-Ac)-Glcp, quercetin-3-O-(2′′,6′′-di-acetyl)-glucoside]: the IC50 worked out at 36.5 ± 1.02 µM.
The same measure, in the same setting: the figure for `CC1OC(OC2C(O)C(CO)OC(Oc3c(-c4ccc(O)c(O)c4)oc4cc(O)cc(O)c4c3=O)C2O)C(O)C(O)C1O` (stereo not shown) [Quercetin 3-O-(3″-Rhap)-Glcp, quercetin-3-O-(3′′-rhamnosyl)-glucoside] is 69.1 ± 1.84 µM; for `COc1cc(-c2oc3cc(O)cc(O)c3c(=O)c2O[C@@H]2O[C@H](CO[C@@H]3O[C@@H](C)[C@H](O)[C@@H](O)[C@H]3O)[C@@H](O)[C@H](O)[C@H]2O)ccc1O` [Isorhamnetin 3-O-(6″-Rhap)-Glcp, isorhamnetin-3-O-rutinoside] it is 97.3 ± 2.91 µM.
The same measure, in the same setting: the figure for `CC1OC(OCC2OC(Oc3c(-c4ccc(O)c(O)c4)oc4cc(O)cc(O)c4c3=O)C(OC3OC(C)C(O)C(O)C3O)C(O)C2O)C(O)C(O)C1O` (stereo not shown) [Quercetin 3-O-(2″,6″-di-Rhap)-Glcp, quercetin-3-O-(2′′,6′′-di-rhamnosyl)-glucoside] is 94.9 ± 2.65 µM; for `COc1cc(-c2oc3cc(O)cc(O)c3c(=O)c2OC2OC(CO)C(O)C(O)C2OC(C)=O)ccc1O` (stereo not shown) [Isorhamnetin 3-O-(2″-Ac)-Glcp, isorhamnetin-3-O-(2′′-acetyl)-glucoside] it is 70.9 ± 1.84 µM; for `COc1cc(-c2oc3cc(O)cc(O)c3c(=O)c2OC2OC(CO)C(OC3OC(C)C(O)C(O)C3O)C(O)C2O)ccc1O` (stereo not shown) [Isorhamnetin 3-O-(4″-Rhap)-Glcp, isorhamnetin-3-O-(4′′-rhamnosyl)-glucoside] it is 92.1 ± 2.85 µM.
In the case of `COc1cc(-c2oc3cc(O)cc(O)c3c(=O)c2OC2OC(C)C(O)C(O)C2O)ccc1O` (stereo not shown) [Isorhamnetin 3-O-Rhap, isorhamnetin-3-O-rhamnoside], the concentration for half-maximal inhibition (IC50) turned out to be 74 ± 2.14 µM.
On the same count and under the same terms, the same measure for `CC(=O)OCC1OC(Oc2c(-c3ccc(O)c(O)c3)oc3cc(O)cc(O)c3c2=O)C(O)C(O)C1O` (stereo not shown) [Quercetin 3-O-(6″-Ac)-Glcp, quercetin-3-O-(6′′-acetyl)-glucoside]: 45.2 ± 1.12 µM; for `CC(=O)OC1C(Oc2c(-c3ccc(O)c(O)c3)oc3cc(O)cc(O)c3c2=O)OC(CO)C(O)C1O` (stereo not shown) [Quercetin 3-O-(2″-Ac)-Glcp, quercetin-3-O-(2′′-acetyl)-glucoside]: 48 ± 1.2 µM.
Consider `COc1cc(-c2oc3cc(O)cc(O)c3c(=O)c2OC2OC(CO)C(O)C(OC3OC(C)C(O)C(O)C3O)C2O)ccc1O` (stereo not shown) [Isorhamnetin 3-O-(3″-Rhap)-Glcp, isorhamnetin-3-O-(3′′-rhamnosyl)-glucoside], for which the IC50 came to 91.2 ± 2.73 µM.
For `COc1cc(-c2oc3cc(O)cc(O)c3c(=O)c2OC2OC(CO)C(O)C(O)C2O)ccc1O` (stereo not shown) [Isorhamnetin 3-O-Glcp, isorhamnetin-3-O-glucoside], the IC50 was 89 ± 2.49 µM.
Consider `COc1cc(-c2oc3cc(O)cc(O)c3c(=O)c2OC2OC(COC(C)=O)C(O)C(O)C2O)ccc1O` (stereo not shown) [Isorhamnetin 3-O-(6″-Ac)-Glcp, isorhamnetin-3-O-(6′′-acetyl)-glucoside], for which the IC50 was determined as 68.2 ± 1.71 µM.
On the same count and under the same terms, the same measure for `COc1cc(-c2oc3cc(O)cc(O)c3c(=O)c2OC2OC(COC(C)=O)C(O)C(O)C2OC(C)=O)ccc1O` (stereo not shown) [Isorhamnetin 3-O-(2″,6″-di-Ac)-Glcp, isorhamnetin-3-O-(2′′,6′′-di-acetyl)-glucoside]: 51.3 ± 1.53 µM.
The same measure, in the same setting: the same measure for `CC1OC(OC2C(CO)OC(Oc3c(-c4ccc(O)c(O)c4)oc4cc(O)cc(O)c4c3=O)C(O)C2O)C(O)C(O)C1O` (stereo not shown) [Quercetin 3-O-(4″-Rhap)-Glcp, quercetin-3-O-(4′′-rhamnosyl)-glucoside]: 70.3 ± 1.9 µM; for `COc1cc(-c2oc3cc(O)cc(O)c3c(=O)c2OC2OC(COC3OC(C)C(O)C(O)C3O)C(O)C(O)C2OC2OC(C)C(O)C(O)C2O)ccc1O` (stereo not shown) [Isorhamnetin 3-O-(2″,6″-di-Rhap)-Glcp, isorhamnetin-3-O-(2′′,6′′-di-rhamnosyl)-glucoside]: 98.5 ± 3.04 µM.

Still in this test, the particulars now being: negative control.
With `[Cl-].[Na+]` [NaCl, reference compound], the “Anti-acetylcholinesterase activity of the negative control, in words” value was “inactive”.
